Experimental findings from patent publication US8404720B2, “Aryl sulfonamide amine compounds and their use as 5-HT6 ligands” (Suven Life Sciences Limited, priority 2008, dated 2013) are described below.

Data set [1] is described as follows: Rodent Pharmacokinetic Study. The data set is classed as in vivo, Male wistar rats. The conditions noted are these: Wistar/Male rat; for AUCt / T1/2 / Tmax / Cmax: 50% PEG-400 in water for injection; for Cmax: plasma. As for the experimental part:
Male wistar rats (230-280 grams) obtained from NIN (National Institute of Nutrition, Hyderabad, India) were used as an experimental animal.
Three to five animals were housed in each cage. Animals were kept fasted over night and maintained on a 12 hours light/dark cycle. […]
At each time point blood was collected by jugular vein. Plasma was stored frozen at −20° C. until analysis. The concentrations of the NCE compound in plasma were determined using LC-MS/MS method.
Schedule time points: Pre dose. 0.25, 0.5, 1, 1.5, 2, 3, 4, 6, 8, 10, 12 and 24 hours after dosing (n=3). The NCE compounds were quantified in plasma by validated LC-MS/MS method using solid phase extraction technique. NCE compounds were quantified in the calibration range of 2-2000 ng/mL in plasma. Study samples were analyzed using calibration samples in the batch and quality control samples spread across the batch.
Pharmacokinetic parameters Cmax, Tmax, AUCt, AUCinf, half life, volume of distribution, clearance, mean residence time and thereby oral bioavailability were calculated by non-compartmental model using software WinNonlin version 5.1.

A short description of data set [2]: Rodent Brain Penetration Study. The data set is classed as in vivo, Male Wister rats. To be noted: Wistar/Male rat, Intravenous infusion, 1 mg/kg, brain/plasma. How it is done: Male Wister rats (230-280 grams) obtained from NIN (National Institute of Nutrition, Hyderabad, India) was used as an experimental animal. Three animals were housed in each cage. Animals were given water and food ad libitum throughout the experiment, and maintained on a 12 hours light/dark cycle.
Brain penetration was determined at steady state in rat. One day prior to dosing day, male wistar rats (225-250 grams) were anesthetized with halothane for surgical placement of jugular and femoral vein catheters. After surgery, the rats were housed in individual rat infusion cage connected with infusion components (Instech Solomon; Plymouth Meeting, Pa. USA) and allowed free access to food and water
NCE compound was dissolved in water and administered at a constant infusion rate (5 mL/kg/hr) over 6-10 hours at a target dose rate of 1.0 mg free base/kg/h. Blood samples were removed during the latter part of the infusion to confirm steady-state blood concentrations, brain and blood was collected and estimated. Animals will be sacrificed to collect the plasma and brain tissue and was homogenized. Plasma and Brain was stored frozen at −20° C. until analysis. The concentrations of the NCE compound in plasma and Brain were determined using LC-MS/MS method.
The NCE compounds were quantified in plasma and brain homogenate by validated LC-MS/MS method using solid phase extraction technique. NCE compounds were quantified in the calibration range of 1-500 ng/mL in plasma and brain homogenate. Study samples were analyzed using calibration samples in the batch and quality control samples spread across the batch. Extents of brain-blood ratio were calculated (Cb/Cp).

For the next data set, the system named is Male Wister rats. As to the kind of experiment: Object Recognition Task Model. To be noted: rat, 3 mg/kg p.o. The data set is classed as in vivo. As for the experimental part: The cognition-enhancing properties of compounds of this invention were estimated using a model of animal cognition: the object recognition task model.
Male Wister rats (230-280 grams) obtained from N. I. N. (National Institute of Nutrition, Hyderabad, India) was used as experimental animals. Four animals were housed in each cage. Animals were kept on 20% food deprivation before one day and given water ad libitum throughout the experiment and maintained on a 12 hours light/dark cycle. Also the rats were habituated to individual arenas for 1 hour in the absence of any objects.
One group of 12 rats received vehicle (1 mL/Kg) orally and another set of animals received compound of the formula (I) either orally or i.p., before one hour of the familiar (T1) and choice trial (T2).
The experiment was carried out in a 50×50×50 cm open field made up of acrylic. In the familiarization phase, (T1), the rats were placed individually in the open field for 3 minutes, in which two identical objects (plastic bottles, 12.5 cm height×5.5 cm diameter) covered in yellow masking tape alone (a1 and a2) were positioned in two adjacent corners, 10 cm. from the walls. After 24 hours of the (T1) trial for long-term memory test, the same rats were placed in the same arena as they were placed in T1 trial. Choice phase (T2) rats were allowed to explore the open field for 3 minutes in presence of one familiar object (a3) and one novel object (b) (Amber color glass bottle, 12 cm high and 5 cm in diameter). Familiar objects presented similar textures, colors and sizes. During the T1 and T2 trial, explorations of each object (defined as sniffing, licking, chewing or having moving vibrissae whilst directing the nose towards the object at a distance of less than 1 cm) were recorded separately by stopwatch. Sitting on an object was not regarded as exploratory activity, however, it was rarely observed.
T1 is the total time spent exploring the familiar objects (a1+a2).
T2 is the total time spent exploring the familiar object and novel object (a3+b).
The object recognition test was performed as described by Ennaceur, A., Delacour, J., A new one-trial test for neurobiological studies of memory in rats—Behavioural data, Behay. Brain Res., 1988, 31, 47-59.

Another data set addresses Human 5-HT6 Receptor (Homo sapiens, UniProt P50406). In words: Binding Assay for Human 5-HT6 Receptor ([3H]LSD radioligand). To be noted: [3H]LSD 1.5 nM, human recombinant receptor in HEK293 cells.
The test system of the next data set is rats. In words: Water Maze (scopolamine induced reversal). The data set is classed as in vivo. The conditions noted are these: p.o. As for the experimental part: The water maze apparatus consisted of a circular pool (1.8 m diameter, 0.6 m high) constructed in black Perspex (TSE systems, Germany) filled with water (24±2° C.) and positioned underneath a wide-angled video camera to track animal. The 10 cm^2 perspex platform, lying 1 cm below the water surface, was placed in the centre of one of the four imaginary quadrants, which remained constant for all rats. The black Perspex used in the construction of the maze and platform offered no intramaze cues to guide escape behavior. By contrast, the training room offered several strong extramaze visual cues to aid the formation of the spatial map necessary for escape learning. An automated tracking system, [Videomot 2 (5.51), TSE systems, Germany] was employed. This program analyzes video images acquired via a digital camera and an image acquisition boards that determined path length, swim speed and the number of entries and duration of swim time spent in each quadrant of the water maze.

Chain of Human 5-HT6 Receptor (P50406 whole entry): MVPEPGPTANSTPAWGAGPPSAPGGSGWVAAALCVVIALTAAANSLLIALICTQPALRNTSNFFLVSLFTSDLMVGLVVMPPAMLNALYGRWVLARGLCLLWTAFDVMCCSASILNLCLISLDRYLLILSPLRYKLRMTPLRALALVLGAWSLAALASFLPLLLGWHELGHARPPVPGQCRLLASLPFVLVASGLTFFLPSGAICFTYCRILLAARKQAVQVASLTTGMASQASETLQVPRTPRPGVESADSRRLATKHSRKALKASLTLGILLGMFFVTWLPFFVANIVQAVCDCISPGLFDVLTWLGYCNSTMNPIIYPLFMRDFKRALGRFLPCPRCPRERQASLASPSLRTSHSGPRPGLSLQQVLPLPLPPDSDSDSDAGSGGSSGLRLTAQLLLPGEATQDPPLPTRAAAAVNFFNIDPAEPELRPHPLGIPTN
Experimental for Human 5-HT6 Receptor: Receptor source: Human recombinant expressed in HEK293 cells
Radioligand: [^3H]LSD (60-80 Ci/mmol)
Final ligand concentration— [1.5 nM]
Non-specific determinant: Methiothepin mesylate— [0.1 μM]
Reference compound: Methiothepin mesylate
Positive control: Methiothepin mesylate
Reactions were carried out in 50 μM TRIS-HCl (pH 7.4) containing 10 μM MgCl2, 0.5 mM EDTA for 60 minutes at 37° C. The reaction was terminated by rapid vacuum filtration onto glass fiber filters. Radioactivity trapped onto the filters was determined and compared to control values in order to ascertain any interactions of test compound(s) with the cloned serotonin 5-HT6 binding site.

For orientation: melting point means the temperature of the solid-liquid transition. In turn, `COc1ccc(NS(=O)(=O)c2ccccc2Br)cc1N(C)C1CCN(C)CC1` had a melting point of 119.2 to 121.3 °C.

For orientation: Tmax means the time from dosing to the highest level. A word on the Cmax: it is the highest concentration seen after dosing. By % Inhibition is commonly meant the relative decrease from the control value, in per cent. Regarding `Cc1ccc(NS(=O)(=O)c2ccccc2Br)cc1NC1CCN(C)CC1` [Example 15, 2-Bromo-N-[4-Methyl-3-(1-methylpiperidin-4-ylamino)phenyl] benzenesulfonamide], in data set [1] (Intravenous, 5 mg/kg), the AUCt came to 1231 ± 52 ng·h/mL, the T1/2 is 3.08 ± 2.11 h, the time to peak (Tmax) came to 0.08 ± 0.0 h and the Cmax turned out to be 727 ± 18 ng/mL. Further, in data set [1] (Oral, 10 mg/kg), the AUCt stood at 2462 ± 901 ng·h/mL, the T1/2 is recorded as 3.15 ± 2.99 h, the Tmax is reported as 2.33 ± 1.15 h and the Cmax was 503 ± 263 ng/mL. This molecule also registered a Bioavailability in data set [1] (oral 10 mg/kg versus intravenous) of 99%. Moreover, the “Steady State Brain Penetration (Cb/Cp)” value in data set [2] is reported as 0.35 ± 0.08. In addition, in the data set with Male Wister rats (choice trial T2, first of two columns (sub-head not printed, presumably familiar object)), the “Exploration time mean ± S.E.M (sec), first value column” value stood at 6.89 ± 1.54 s. The “Exploration time mean ± S.E.M (sec), second value column” value in the data set on Male Wister rats (choice trial T2, second of two columns (sub-head not printed, presumably novel object)) worked out at 13.26 ± 2.80 s. Also, the Inference entry in the data set on Male Wister rats (object recognition task) is “Active”. The “% Inhibition at 100 nM” value on Human 5-HT6 Receptor (100 nM test compound) was found to be 99.44%. Moreover, the “% Inhibition at 1000 nM” value at Human 5-HT6 Receptor (1000 nM test compound) stood at 104.28%. Besides, the “Scopolamine Induced Reversal” value in the data set with rats was “≦3 mg/kg, p.o”.
